The values that follow come from ChEMBL document CHEMBL1697692, “Developing structure-activity relationships for the prediction of hepatotoxicity” (Chem Res Toxicol, 2010).

This series has as its system Hepatotoxicity. Nature of the series: Literature-mined public compounds from Greene et al multi-species hepatotoxicity modelling dataset.
For the compound `[H]/N=C(/N)N[C@H]1[C@H](O)[C@@H](O)[C@H](O[C@@H]2O[C@@H](C)[C@](O)(C=O)[C@H]2O[C@@H]2O[C@@H](CO)[C@H](O)[C@@H](O)[C@@H]2NC)[C@@H](N/C(N)=N\[H])[C@@H]1O` [STREPTOMYCIN], the Hepatotoxicity entry is recorded as “NE: No evidence of hepatotoxicity in any species”.

For the compound `CN(N=O)C(=O)N[C@@H](C=O)[C@@H](O)[C@H](O)[C@H](O)CO` [STREPTOZOCIN], the Hepatotoxicity entry is “NE: No evidence of hepatotoxicity in any species”.

As for `Clc1ccc(CSC(Cn2ccnc2)c2ccc(Cl)cc2Cl)cc1.O=[N+]([O-])O` (stereo not given) [SULCONAZOLE NITRATE], the Hepatotoxicity result is listed as “NE: No evidence of hepatotoxicity in any species”. `Nc1ccc(S(=O)(=O)NC(=O)c2ccccc2)cc1` [SULFABENZAMIDE]: the Hepatotoxicity entry is “NE: No evidence of hepatotoxicity in any species”. Under `Cc1nnc(NS(=O)(=O)c2ccc(N)cc2)s1` [SULFAMETHIZOLE] stands “HH: Evidence of human hepatotoxicity”. Then `Nc1ccc(S(N)(=O)=O)cc1` [SULFANILAMIDE], with “HH: Evidence of human hepatotoxicity”.

For the compound `O=C(O)c1cc(/N=N/c2ccc(S(=O)(=O)Nc3ccccn3)cc2)ccc1O` [SULFASALAZINE], the Hepatotoxicity entry was “HH: Evidence of human hepatotoxicity”.

With `O=C1C(CC[S+]([O-])c2ccccc2)C(=O)N(c2ccccc2)N1c1ccccc1` (stereo not given) [SULFINPYRAZONE], the Hepatotoxicity entry was “HH: Evidence of human hepatotoxicity”. Then `Nc1c2c(nc3ccccc13)CCCC2` [TACRINE], with “AH: Evidence for animal hepatotoxicity but not tested in humans”; and `Cc1nc(C)c2c(n1)N(Cc1ccc(-c3ccccc3-c3nnn[nH]3)cc1)C(=O)CC2` [TASOSARTAN], with “HH: Evidence of human hepatotoxicity”.

On to `C[C@H](CCC(=O)NCCS(=O)(=O)O)[C@H]1CC[C@H]2[C@@H]3[C@@H](O)C[C@@H]4C[C@H](O)CC[C@]4(C)[C@H]3CC[C@]12C` [TAURURSODIOL], for which the Hepatotoxicity entry was “HH: Evidence of human hepatotoxicity”. Under `CC[C@H]1OC(=O)[C@H](C)C(=O)[C@H](C)[C@@H](O[C@@H]2O[C@H](C)C[C@H](N(C)C)[C@H]2O)[C@](C)(OC)C[C@@H](C)C(=O)[C@H](C)[C@H]2N(CCCCn3cnc(-c4cccnc4)c3)C(=O)O[C@]12C` [TELITHROMYCIN] stands “HH: Evidence of human hepatotoxicity”. For the compound `CC1CN(c2cc3c(cc2F)c(=O)c(C(=O)O)cn3-c2ccc(F)cc2F)CCN1` (stereo not given) [TEMAFLOXACIN], the Hepatotoxicity entry is recorded as “HH: Evidence of human hepatotoxicity”. Under `CC(C)(C)c1ccc(C(O)CCCN2CCC(C(O)(c3ccccc3)c3ccccc3)CC2)cc1` (stereo not given) [TERFENADINE] stands “NE: No evidence of hepatotoxicity in any species”; under `CCCCNc1ccc(C(=O)OCCN(C)C)cc1.Cl` [TETRACAINE HYDROCHLORIDE], “NE: No evidence of hepatotoxicity in any species”. Under `CN(C)[C@@H]1C(O)=C(C(N)=O)C(=O)[C@@]2(O)C(O)=C3C(=O)c4c(O)cccc4[C@@](C)(O)[C@H]3C[C@@H]12` [TETRACYCLINE] stands “HH: Evidence of human hepatotoxicity”. Then `Cn1c(=O)c2[nH]cnc2n(C)c1=O.O` [THEOPHYLLINE], with “NE: No evidence of hepatotoxicity in any species”.

For the compound `Cc1ncc(C[n+]2csc(CCO)c2C)c(N)n1` [THIAMINE ION], the Hepatotoxicity entry is given as “NE: No evidence of hepatotoxicity in any species”. Then `CC(=N)S` [THIOACETAMIDE], with “AH: Evidence for animal hepatotoxicity but not tested in humans”; and `CN1c2ccccc2C(NCCCCCCC(=O)O)c2ccc(Cl)cc2S1(=O)=O` (stereo not given) [TIANEPTINE], with “HH: Evidence of human hepatotoxicity”. Under `Clc1ccccc1CN1CCc2sccc2C1` [TICLOPIDINE] stands “HH: Evidence of human hepatotoxicity”; under `CC(C)(C)NC[C@H](O)COc1nsnc1N1CCOCC1.O=C(O)/C=C\C(=O)O` [TIMOLOL MALEATE], “HH: Evidence of human hepatotoxicity”.

`NC[C@H]1O[C@H](O[C@H]2[C@H](O)[C@@H](O[C@H]3O[C@H](CO)[C@@H](O)[C@H](N)[C@H]3O)[C@H](N)C[C@@H]2N)[C@H](N)C[C@@H]1O` [TOBRAMYCIN]: the Hepatotoxicity result was “HH: Evidence of human hepatotoxicity”. As to `Cc1ccc(S(=O)(=O)NC(=O)NN2CCCCCC2)cc1` [TOLAZAMIDE], the Hepatotoxicity result is “HH: Evidence of human hepatotoxicity”. Then `Cc1ccc(C(=O)c2cc(O)c(O)c([N+](=O)[O-])c2)cc1` [TOLCAPONE], with “HH: Evidence of human hepatotoxicity”. Under `Cc1ccc(C(=O)c2ccc(CC(=O)O)n2C)cc1` [TOLMETIN] stands “HH: Evidence of human hepatotoxicity”. Then `Cl.N[C@@H]1C[C@H]1c1ccccc1` [TRANYLCYPROMINE HYDROCHLORIDE], with “NE: No evidence of hepatotoxicity in any species”. With `Cl.O=c1n(CCCN2CCN(c3cccc(Cl)c3)CC2)nc2ccccn12` [TRAZODONE HYDROCHLORIDE], the Hepatotoxicity entry was “HH: Evidence of human hepatotoxicity”. On to `CC1=C(/C=C/C(C)=C/C=C/C(C)=C/C(=O)O)C(C)(C)CCC1` [TRETINOIN], for which the Hepatotoxicity entry was “HH: Evidence of human hepatotoxicity”. Turning to `ClC=C(Cl)Cl` [TRICHLOROETHYLENE], the Hepatotoxicity entry was “AH: Evidence for animal hepatotoxicity but not tested in humans”. Then `CN1CCN(CCCN2c3ccccc3Sc3ccc(C(F)(F)F)cc32)CC1` [TRIFLUOPERAZINE], with “HH: Evidence of human hepatotoxicity”; and `CN1C(=O)OC(C)(C)C1=O` [TRIMETHADIONE], with “HH: Evidence of human hepatotoxicity”. With `COc1cc(C(=O)NCc2ccc(OCCN(C)C)cc2)cc(OC)c1OC.Cl` [TRIMETHOBENZAMIDE HYDROCHLORIDE], the Hepatotoxicity entry was “HH: Evidence of human hepatotoxicity”. Turning to `COc1cc(Cc2cnc(N)nc2N)cc(OC)c1OC` [TRIMETHOPRIM], the Hepatotoxicity result was “HH: Evidence of human hepatotoxicity”. For `CN(C)CCN(Cc1ccccc1)c1ccccn1.Cl` [TRIPELENNAMINE HYDROCHLORIDE], the Hepatotoxicity entry is “HH: Evidence of human hepatotoxicity”.

With `Cc1c(C)c2c(c(C)c1O)CCC(C)(COc1ccc(CC3SC(=O)NC3=O)cc1)O2` (stereo not given) [TROGLITAZONE], the Hepatotoxicity entry is recorded as “HH: Evidence of human hepatotoxicity”. Consider `CO[C@H]1C[C@H](O[C@H]2[C@H](C)[C@@H](O[C@@H]3O[C@H](C)C[C@H](N(C)C)[C@H]3OC(C)=O)[C@@H](C)C[C@@]3(CO3)C(=O)[C@H](C)[C@@H](OC(C)=O)[C@@H](C)[C@@H](C)OC(=O)[C@@H]2C)O[C@@H](C)[C@@H]1OC(C)=O` [TROLEANDOMYCIN], for which the Hepatotoxicity result is reported as “HH: Evidence of human hepatotoxicity”. Then `NC(CO)(CO)CO` [TROMETHAMINE], with “NE: No evidence of hepatotoxicity in any species”; and `N[C@@H]1[C@H]2CN(c3nc4c(cc3F)c(=O)c(C(=O)O)cn4-c3ccc(F)cc3F)C[C@@H]12` [TROVAFLOXACIN], with “HH: Evidence of human hepatotoxicity”.

Take `Oc1ncc(N(CCCl)CCCl)c(O)n1` [URACIL MUSTARD]: the Hepatotoxicity entry is recorded as “HH: Evidence of human hepatotoxicity”.
